This note sets out measurements from patent US8273748B2, “Amino alcohol derivative and immunosuppresive agent having same as an active ingredient” (Kyorin Pharmaceutical Co., Ltd., priority 2006, dated 2012).

Holding throughout (assay type): in vivo
The test system of data set [1] is white blood cells in mouse peripheral blood. The data set can be described thus: Activity on total number of white blood cells in mouse peripheral blood. Conditions: BALB/c mice, blood collected 6 hours after administration. The procedure: The test compounds were dissolved or suspended in DMSO, and then a physiological saline solution was added to make dosing solutions (DMSO final concentration 1%). If the dosing solutions were not in a dissolved or a uniform suspended state, Tween 80 was added so that the final concentration thereof was 0.01 to 0.1%. The resultant solutions were then sonicated to form a fine suspension. These test compound solutions were intraperitoneally administered in respective amounts of 0.1 mL or 0.2 mL per 10 g of body weight to BALB/cCrSlc male mice (8 to 14 weeks old, Japan SLC). For the control group, only a solvent having the same composition as that used in the preparation of the test compounds was administered in the same manner. Six hours after administration of the test compound solutions, blood was collected from the postcava under ether anesthesia (10 μL of 10% EDTA was added as an anticoagulant). Measurement of the total number of white blood cells was carried out using the automated blood cell counting apparatus Sysmex F-820 (Sysmex). Here, compounds having an inhibition ratio of 60% or more were marked as “+++”, compounds having an inhibition ratio of less than 60% but more than or equal to 50% were marked as “++”, and compounds having an inhibition ratio of less than 50% but more than or equal to 40% were marked as “+”. Furthermore, the inhibition ratios are the results from a dose of 0.3 mg/kg (“[ ]” are the results from 3 mg/kg).

In data set [2] the test system is mouse host-versus-graft rejection reaction. In words: Inhibition activity on mouse host-versus-graft rejection reaction (popliteal lymph node weight). Conditions: ip, inhibition of popliteal lymph node weight increase, C3H/HeN mice, intraperitoneal once per day, 4 times. The procedure: Experiment example 2 was carried out by referring to the methods described in Transplantation, Vol. 55, No. 3, pp. 578 to 591, 1993. The spleens from BALB/c male mice which were6 to 23 weeks old (Japan SLC) were collected. The spleens were extracted in RPMI-1640 medium (Sigma), and then turned into a spleen cell suspension by grinding them with 2 glass slides and then passing the ground matter through a strainer (70 microns, Falcon). The spleen cell suspensions were centrifuged, and the supernatants were removed. Then, an ammonium chloride-tris isotonic buffer solution was added, and the red blood cells were hemolyzed. After centrifuging and washing 3 times with RPMI-1640 medium, the cells were suspended in RPMI-1640 medium. Mitomycin C (Kyowa Hakko) was added thereto so that the final concentration was 25 μg/mL, and the cells were incubated for 30 minutes at 37° C. under 5% CO2. After centrifuging and washing 3 times with RPMI-1640 medium, the cells were suspended in RPMI-1640 medium so that the concentration was 2.5×10^8 cells/mL. These cells were used as a stimulator cell suspension. 20 μL (5×10^6 cells/mouse) of the stimulator cell suspension was injected subcutaneously into the right hind-foodpad of C3H/HeN male mice which were6 to 11 weeks old (Clea Japan) using a 27G needle and a microsyringe (Hamilton). For the normal control group, RPMI-1640 medium only was injected. After 4 days, the right popliteal lymph nodes were extracted, and their weight was measured using Mettler AT201 electronic scales (Mettler Toledo). From the day of the stimulator cell suspensions being injected to 3 days thereafter, the test compounds were intraperitoneally administered on consecutive days once per day, for a total of 4 times. For the control group, only a solvent having the same composition as that used in the preparation of the test compounds was administered in the same manner. As the solvent, basically a physiological saline containing 0.5% DMSO was used (suitably adjusted according to the solubility of the compound). The inhibition ratio was calculated using the following equation. [formula]

Data set [3] is described as follows: Effect on rat lung weight. To be noted: Wistar rats, lungs extracted 6 hours later. How it is done: Crlj:Wistar rats (male) 5 to 8 weeks old were used in the experiment. An aqueous solution of the test compounds was respectively orally administered in an amount of 0.5 mL per 100 g of rat body weight. The lungs were extracted 6 hours later, and the lung weight was measured.

The test system of data set [4] is allogenic skin graft for rats. The data set can be described thus: Rat skin graft model (allogenic skin graft survival). Conditions: for MST: oral administration once a day. How it is done:
Using a rat skin graft model, activity on the rejection reaction was investigated.
Skin from the abdomen of a LEW/CrlCrlj rat serving as the donor (male, 5 weeks old, Japan Charles River) was peeled away, and the panniculus carnosus muscule layer under the skin was removed. Then, a 1.8 cm×1.8 cm skin specimen (graft) was prepared. Next, a F344/DuCrlCrlj rat serving as the recipient (male, 5 weeks old, Japan Charles River) was anesthetized by intraperitoneal administration of 40 mg/kg of sodium pentobarbital (nembutal injection, Dainippon Sumitomo Pharma). The hair of the back of the rat was shorn off by electric clippers, and then the remaining hair was further shaved off using a razor. Then, a 1.8 cm×1.8 cm mark was made on the back of the rat, and a shallow cut was made along the mark with a scalpel. Next, the skin was peeled away along this cut by tweezers to produce a graft bed. Several drops of sterile physiological saline solution (Otsuka normal saline, Otsuka Pharmaceutical) were dropped onto the graft bed, and then wiped away with gauze. Several drops of penicillin (crystalline penicillin GpotassiumMeiji, Meiji Seika) were then dropped thereon. Next, the graft was placed on the graft bed. After absorbing excess moisture with sterile gauze, a first-aid bandaid was stuck over the graft. Furthermore, an adhesive bandage was wrapped around the trunk of the rat. On the third day after the operation, a new adhesive bandage was wrapped thereover. On the fifth day after the operation, the bandaid and the bandages were cut open with scissors and removed. Observation of the graft was carried out on consecutive days from when the bandaid was removed (from the fifth day). A determination of graft rejection was made when 90% or more of the graft had died and tuned brown. The number of days from grafting until rejection was confirmed was taken as the survival period. The mean value of the survival period for each group was calculated as the mean survival time (MST). Investigation was carried out with 5 animals per group. All of the rats were housed in individual cages. The test compounds were dissolved in ultra-pure water, and were orally administered once a day, on consecutive days, from the graft day. For the control group, ultra-pure water was administered in the same manner.

Where [5] appears, read: dose 3 mg/kg (values in [ ]) intraperitoneal.

`C[C@](N)(CO)CCCc1ccc(Oc2cccc(C(F)(F)F)c2)cc1Cl.Cl` [Example 26, (R)-2-amino-5-[2-chloro-4-(3-trifluoromethylphenoxy)phenyl]-2-methylpentan-1-ol hydrochloride]: the “Inhibition Ratio” value in data set [1] (setting [5]) was “[+] (inhibition ratio of less than 50% but more than or equal to 40%)”. Moreover, the median effective dose (ED50) in data set [2] lay within 0.1 to 1 mg/kg. Further, the “Effect on lung weight” value in data set [3] (up to a dose of 30 mg/kg oral) is recorded as “no effects whatsoever on lung weight”.

Take `C[C@](N)(CO)CCCc1ccc(Sc2cccc(C(F)(F)F)c2)cc1Cl.Cl` [Example 27, (R)-2-amino-5-[2-chloro-4-(3-trifluoromethylphenylthio)phenyl]-2-methylpentan-1-ol hydrochloride]: in data set [1] (dose 0.3 mg/kg intraperitoneal), the “Inhibition Ratio” value is “+ (inhibition ratio of less than 50% but more than or equal to 40%)”. Moreover, the MST is given as 11.8 days in data set [4] (3 mg/kg), 14 days in data set [4] (10 mg/kg) and 20.4< days in data set [4] (30 mg/kg). Also, in data set [4] (individual administration, oral), the “Survival period extension effect of the graft” value is reported as “survival period extension effect of the graft was found”. This compound also displayed an ED50 in data set [2] of under 0.1 mg/kg. Besides, the “Effect on lung weight” value in data set [3] (up to a dose of 100 mg/kg oral) is given as “no effects whatsoever on lung weight”.

With `C[C@](N)(CO)CCc1ccc(Oc2cccc(C(F)(F)F)c2)cc1Cl.Cl` [Example 28, (R)-2-amino-4-[2-chloro-4-(3-trifluoromethylphenoxy)phenyl]-2-methylbutan-1-ol hydrochloride], the “Inhibition Ratio” value in data set [1] (dose 0.3 mg/kg intraperitoneal) is “++ (inhibition ratio of less than 60% but more than or equal to 50%)”. In data set [2], the ED50 was 1 to 10 mg/kg.

In the case of `C[C@](N)(CO)CCc1ccc(Sc2cccc(C(F)(F)F)c2)cc1Cl.Cl` [Example 29, (R)-2-amino-4-[2-chloro-4-(3-trifluoromethylphenylthio)phenyl]-2-methylbutan-1-ol hydrochloride], the “Inhibition Ratio” value in data set [1] (dose 0.3 mg/kg intraperitoneal) was “+++ (inhibition ratio of 60% or more)”. Besides, the 50% effective dose (ED50) in data set [2] was 0.1 to 1 mg/kg.

`CCc1cccc(Sc2ccc(CCC[C@@](C)(N)CO)c(Cl)c2)c1.Cl` [Example 32, (R)-2-amino-5-[2-chloro-4-(3-ethylphenylthio)phenyl]-2-methylpentan-1-ol hydrochloride]: the ED50 in data set [2] lay in the range of 0.1 to 1 mg/kg.

On to `C[C@](N)(CO)CCCc1ccc(Sc2cccc(C(F)(F)F)c2)cc1F.Cl` [Example 35, (R)-2-amino-5-[2-fluoro-4-(3-trifluoromethylphenylthio)phenyl]-2-methylpentan-1-ol hydrochloride], for which the ED50 in data set [2] lay within 0.1 to 1 mg/kg.

Take `CCC[C@](N)(CO)CCCc1ccc(Sc2cccc(C(F)(F)F)c2)cc1Cl.Cl` [Example 36, (R)-2-amino-5-[2-chloro-4-(3-trifluoromethylphenylthio)phenyl]-2-propylpentan-1-ol hydrochloride]: the “Inhibition Ratio” value in data set [1] (setting [5]) is “[++] (inhibition ratio of less than 60% but more than or equal to 50%)”. Further, in data set [2], the ED50 was 0.1 to 1 mg/kg.
